Test results as given in patent publication US11332459B2 (TEIJIN PHARMA LIMITED, priority 2017, dated 2022).

Target: T1, human TRPC6 (Homo sapiens, UniProt Q9Y210)
T1 construct: expressed in transfected cells
T1 sequence (Q9Y210 1-931): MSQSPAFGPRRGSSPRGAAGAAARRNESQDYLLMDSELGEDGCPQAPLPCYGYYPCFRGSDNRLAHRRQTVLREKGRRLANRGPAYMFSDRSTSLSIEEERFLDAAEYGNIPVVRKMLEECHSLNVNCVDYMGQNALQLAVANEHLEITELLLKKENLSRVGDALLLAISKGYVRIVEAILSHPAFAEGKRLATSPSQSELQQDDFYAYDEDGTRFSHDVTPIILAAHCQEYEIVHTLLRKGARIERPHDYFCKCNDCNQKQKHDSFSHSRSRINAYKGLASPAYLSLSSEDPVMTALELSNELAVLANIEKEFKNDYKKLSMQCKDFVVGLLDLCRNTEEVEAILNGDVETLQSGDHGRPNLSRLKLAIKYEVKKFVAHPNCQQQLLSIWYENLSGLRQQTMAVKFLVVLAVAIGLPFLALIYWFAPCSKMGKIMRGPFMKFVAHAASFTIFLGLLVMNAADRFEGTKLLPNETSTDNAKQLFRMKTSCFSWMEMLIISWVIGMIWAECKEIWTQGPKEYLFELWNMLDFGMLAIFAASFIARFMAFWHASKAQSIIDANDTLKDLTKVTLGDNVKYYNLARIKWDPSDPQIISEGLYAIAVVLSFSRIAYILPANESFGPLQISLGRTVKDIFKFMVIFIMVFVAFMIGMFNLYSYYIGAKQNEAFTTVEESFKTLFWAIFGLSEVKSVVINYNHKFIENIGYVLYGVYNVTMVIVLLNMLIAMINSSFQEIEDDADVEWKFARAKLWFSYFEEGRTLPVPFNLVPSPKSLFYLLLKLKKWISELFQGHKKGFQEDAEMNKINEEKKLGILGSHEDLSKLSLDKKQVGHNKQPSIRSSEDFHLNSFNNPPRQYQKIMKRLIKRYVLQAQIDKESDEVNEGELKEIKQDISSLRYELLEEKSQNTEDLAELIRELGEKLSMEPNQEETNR
Experiment: TRPC6 calcium flux assay (FLIPR, OAG-stimulated calcium influx)
Type: cell-based
Details: HEK293 cells stably transfected with human TRPC6, read-out: hTRPC6 Potency
Method in brief: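 IC50 derived by plotting background-corrected peak fluorescence (180 s window, normalized to OAG-triggered signal vs buffer) against dose. Stable human TRPC6 HEK293 line was dye-loaded, exposed to compound 25 min, then challenged with 50 uM final OAG in 2 mM Ca2+ HEPES buffer pH 7.2, 0.5% DMSO.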

IC50	SMILES
326 nM	N#Cc1ccc(Cn2c(N3CC[C@H](CN)C3)nc3ccccc32)cc1 [Example 179, (R)-4-((2-(3-(aminomethyl)pyrrolidin-1-yl)-1H-benzo[d]imidazol-1-yl)methyl)benzonitrile]
14.9 nM	C[C@H]1CCN(c2nc3ccccc3n2Cc2ccc(C#N)cc2)C[C@H]1N [Example 180, 4-((2-((3S,4S)-3-amino-4-methylpiperidin-1-yl)-1H-benzo[d]imidazol-1-yl)methyl)benzonitrile 2,2,2-trifluoroacetate]
0.907 nM	C[C@@H]1CCN(c2nc3ccccc3n2Cc2ccc(C#N)cc2)C[C@H]1N [Example 181, 4-((2-((3S,4R)-3-amino-4-methylpiperidin-1-yl)-1H-benzo[d]imidazol-1-yl)methyl)benzonitrile 2,2,2-trifluoroacetate]
314 nM	C[C@H]1CCN(c2nc3ccccc3n2Cc2ccc(C#N)cc2)C[C@@H]1N [Example 182, 4-((2-((3R,4S)-3-amino-4-methylpiperidin-1-yl)-1H-benzo[d]imidazol-1-yl)methyl)benzonitrile 2,2,2-trifluoroacetate]
655 nM	N#Cc1ccc(Cn2c(N3C[C@@H]4C[C@]4(CN)C3)nc3ccccc32)cc1 [Example 183, 4-((2-((1S,5R)-1-(aminomethyl)-3-azabicyclo[3.1.0]hexan-3-yl)-1H-benzo[d]imidazol-1-yl)methyl)benzonitrile]
143 nM	N#Cc1ccc(Cn2c(N3C[C@H]4C[C@@]4(CN)C3)nc3ccccc32)cc1 [Example 184, 4-((2-((1R,5S)-1-(aminomethyl)-3-azabicyclo[3.1.0]hexan-3-yl)-1H-benzo[d]imidazol-1-yl)methyl)benzonitrile]
3.58 nM	COc1ccc2nc(N3CCC[C@@H](N)C3)n(Cc3ccc(C#N)cc3)c2c1 [Example 185, (R)-4-((2-(3-aminopiperidin-1-yl)-6-methoxy-1H-benzo[d]imidazol-1-yl)methyl)benzonitrile]
278 nM	COc1ccc2c(c1)nc(N1CCC[C@@H](N)C1)n2Cc1ccc(C#N)cc1 [Example 186, (R)-4-((2-(3-aminopiperidin-1-yl)-5-methoxy-1H-benzo[d]imidazol-1-yl)methyl)benzonitrile]
1.59 nM	N#Cc1ccc2nc(N3CC[C@@H](F)[C@H](N)C3)n(Cc3ncc(Cl)cn3)c2c1 [Example 187, 2-((3R,4R)-3-amino-4-fluoropiperidin-1-yl)-1-((5-chloropyrimidin-2-yl)methyl)-1H-benzo[d]imidazole-6-carbonitrile]
13 nM	N[C@@H]1CN(c2nc3ccccc3n2Cc2ncc(F)cn2)CC[C@H]1F [Example 188, (3R,4R)-4-fluoro-1-(1-((5-fluoropyrimidin-2-yl)methyl)-1H-benzo[d]imidazol-2-yl)piperidin-3-amine]
3.59 nM	N[C@@H]1CN(c2nc3ccccc3n2Cc2ccc(F)cn2)CC[C@H]1F [Example 189, (3R,4R)-4-fluoro-1-(1-((5-fluoropyridin-2-yl)methyl)-1H-benzo[d]imidazol-2-yl)piperidin-3-amine]
4.02 nM	N#Cc1ccc2nc(N3CC[C@@H](F)[C@H](N)C3)n(Cc3ccc(F)cn3)c2c1 [Example 190, 2-((3R,4R)-3-amino-4-fluoropiperidin-1-yl)-1-((5-fluoropyridin-2-yl)methyl)-1H-benzo[d]imidazole-6-carbonitrile]
140 nM	N#Cc1ccc2c(c1)nc(N1CC[C@@H](F)[C@H](N)C1)n2Cc1ccc(F)cn1 [Example 191, 2-((3R,4R)-3-amino-4-fluoropiperidin-1-yl)-1-((5-fluoropyridin-2-yl)methyl)-1H-benzo[d]imidazole-5-carbonitrile]
1.72 nM	N[C@@H]1CN(c2nc3ccccc3n2Cc2ncc(Br)cn2)CC[C@H]1F [Example 192, (3R,4R)-1-(1-((5-bromopyrimidin-2-yl)methyl)-1H-benzo[d]imidazol-2-yl)-4-fluoropiperidin-3-amine]
48.5 nM	N[C@@H]1CN(c2nc3ccccc3n2Cc2ncc(C(F)(F)F)cn2)CC[C@H]1F [Example 193, (3R,4R)-4-fluoro-1-(1-((5-(trifluoromethyl)pyrimidin-2-yl)methyl)-1H-benzo[d]imidazol-2-yl)piperidin-3-amine]
14.2 nM	COc1cnc(Cn2c(N3CC[C@@H](F)[C@H](N)C3)nc3ccccc32)nc1 [Example 194, (3R,4R)-4-fluoro-1-(1-((5-methoxypyrimidin-2-yl)methyl)-1H-benzo[d]imidazol-2-yl)piperidin-3-amine]

IC50	SMILES
0.664 nM	N[C@@H]1CN(c2nc3ccccc3n2Cc2ncc(Cl)cn2)CC[C@H]1F [Example 195, (3R,4R)-1-(1-((5-chloropyrimidin-2-yl)methyl)-1H-benzo[d]imidazol-2-yl)-4-fluoropiperidin-3-amine]
6.47 nM	N#Cc1ccc2nc(N3CC[C@@H](F)[C@H](N)C3)n(Cc3ncc(F)cn3)c2c1 [Example 196, 2-((3R,4R)-3-amino-4-fluoropiperidin-1-yl)-1-((5-fluoropyrimidin-2-yl)methyl)-1H-benzo[d]imidazole-6-carbonitrile]
256 nM	N#Cc1ccc2c(c1)nc(N1CC[C@@H](F)[C@H](N)C1)n2Cc1ncc(F)cn1 [Example 197, 2-((3R,4R)-3-amino-4-fluoropiperidin-1-yl)-1-((5-fluoropyrimidin-2-yl)methyl)-1H-benzo[d]imidazole-5-carbonitrile]
71.2 nM	N#Cc1ccc2c(c1)nc(N1CC[C@@H](F)[C@H](N)C1)n2Cc1ncc(Cl)cn1 [Example 198]
28.1 nM	N#Cc1cnc(Cn2c(N3CCC(F)(F)[C@H](N)C3)nc3ccccc32)cn1 [Example 199]
2.18 nM	N#Cc1ccc2nc(N3CC[C@@H](F)[C@H](N)C3)n(Cc3ncc(Br)cn3)c2c1 [Example 200, 2-((3R,4R)-3-amino-4-fluoropiperidin-1-yl)-1-((5-bromopyrimidin-2-yl)methyl)-1H-benzo[d]imidazole-6-carbonitrile]
43.9 nM	N#Cc1ccc2c(c1)nc(N1CC[C@@H](F)[C@H](N)C1)n2Cc1ncc(Br)cn1 [Example 201, 2-((3R,4R)-3-amino-4-fluoropiperidin-1-yl)-1-((5-bromopyrimidin-2-yl)methyl)-1H-benzo[d]imidazole-5-carbonitrile]
2.14 nM	N#Cc1cnc(Cn2c(N3CC[C@@H](F)[C@H](N)C3)nc3ccccc32)cn1 [Example 202, 5-((2-((3R,4R)-3-amino-4-fluoropiperidin-1-yl)-1H-benzo[d]imidazol-1-yl)methyl)pyrazine-2-carbonitrile]
598 nM	N#Cc1ccc2nc(N3CC[C@H](F)[C@H](N)C3)n(Cc3ncc(Cl)cn3)c2c1 [Example 203, 2-((3R,4S)-3-amino-4-fluoropiperidin-1-yl)-1-((5-chloropyrimidin-2-yl)methyl)-1H-benzo[d]imidazole-6-carbonitrile]
4.92 nM	N#Cc1ccc2c(c1)nc(N1CC[C@H](F)[C@H](N)C1)n2Cc1ncc(Cl)cn1 [Example 204, 2-((3R,4S)-3-amino-4-fluoropiperidin-1-yl)-1-((5-chloropyrimidin-2-yl)methyl)-1H-benzo[d]imidazole-5-carbonitrile]
3 nM	N[C@@H]1CN(c2nc3ccc(F)cc3n2Cc2ncc(Cl)cn2)CC[C@H]1O [Example 205, (3R,4R)-3-amino-1-(1-((5-chloropyrimidin-2-yl)methyl)-6-fluoro-1H-benzo[d]imidazol-2-yl)piperidin-4-ol]
12.3 nM	N[C@@H]1CN(c2nc3cc(F)ccc3n2Cc2ncc(Cl)cn2)CC[C@H]1O [Example 206, (3R,4R)-3-amino-1-(1-((5-chloropyrimidin-2-yl)methyl)-5-fluoro-1H-benzo[d]imidazol-2-yl)piperidin-4-ol]
49.6 nM	N#Cc1ccc(Cn2c(N3CC[C@@H](O)[C@H](N)C3)nc3ccc(F)cc32)nc1 [Example 207, 6-((2-((3R,4R)-3-amino-4-hydroxypiperidin-1-yl)-6-fluoro-1H-benzo[d]imidazol-1-yl)methyl)nicotinonitrile]
47.7 nM	N#Cc1ccc(Cn2c(N3CC[C@@H](O)[C@H](N)C3)nc3cc(F)ccc32)nc1 [Example 208, 6-((2-((3R,4R)-3-amino-4-hydroxypiperidin-1-yl)-5-fluoro-1H-benzo[d]imidazol-1-yl)methyl)nicotinonitrile]
3.87 nM	N[C@H]1CCCN(c2nc3ccccc3n2Cc2ccc(Cl)cn2)C1 [Example 209, (S)-1-(1-((5-chloropyridin-2-yl)methyl)-1H-benzo[d]imidazol-2-yl)piperidin-3-amine]
